This is an account of results in US20230148214A1, “INDAZOLES AND AZAINDAZOLES AS LRRK2 INHIBITORS” (ESCAPE Bio, Inc., priority 2020, published 2023).

In one assay the target is T1, LRRK2 G2019S (Homo sapiens, UniProt Q5S007, G2019S).
T1 construct: purchased Life Technologies PV4881
Nature of the assay: LRRK2 Kinase Activity Assay (LanthaScreen TR-FRET), G2019S. The class given is biochemical. Conditions: recombinant G2019S-LRRK2, 25 μM ATP, 400 nM LRRKtide, 60 min; class symbols. As for the experimental part: LRRK2 kinase activity was measured using a LanthaScreen™ Kinase Activity Assay from ThermoFisher Scientific. Recombinant wild type or G2019S-LRRK2 protein (Life Technologies, PR8604B or PV4881, respectively), was incubated with a fluorescein-labeled peptide substrate called LRRKtide that is based upon ezrin/radixin/moesin (ERM) (Life Technologies, PV4901) in the presence of ATP and serially diluted compound. […] Compound-dependent inhibition of the TR-FRET signal was used to generate a concentration-response curve for IC50 determination.
After 60 min incubation at room temperature, the reaction was stopped by addition of 10 μL of 2×stop solution containing a final concentration of 2 nM anti-pERM antibody and 10 mM EDTA.

The target in a further assay is T2, LRRK2 WT (Homo sapiens, UniProt Q5S007).
T2 construct: purchased Life Technologies PR8604B
In words: LRRK2 Kinase Activity Assay (LanthaScreen TR-FRET), wild type. Type of assay: biochemical. Conditions: recombinant wild type LRRK2, 25 μM ATP, 400 nM LRRKtide, 60 min; class symbols. The essentials:
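Recombinant wild-type or G2019S LRRK2 incubated with fluorescein-labeled LRRKtide (ERM-based) peptide, ATP and serially diluted compound for 60 min at room temperature.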

The structures appear in SMILES notation.

T2 sequence (Q5S007 whole entry): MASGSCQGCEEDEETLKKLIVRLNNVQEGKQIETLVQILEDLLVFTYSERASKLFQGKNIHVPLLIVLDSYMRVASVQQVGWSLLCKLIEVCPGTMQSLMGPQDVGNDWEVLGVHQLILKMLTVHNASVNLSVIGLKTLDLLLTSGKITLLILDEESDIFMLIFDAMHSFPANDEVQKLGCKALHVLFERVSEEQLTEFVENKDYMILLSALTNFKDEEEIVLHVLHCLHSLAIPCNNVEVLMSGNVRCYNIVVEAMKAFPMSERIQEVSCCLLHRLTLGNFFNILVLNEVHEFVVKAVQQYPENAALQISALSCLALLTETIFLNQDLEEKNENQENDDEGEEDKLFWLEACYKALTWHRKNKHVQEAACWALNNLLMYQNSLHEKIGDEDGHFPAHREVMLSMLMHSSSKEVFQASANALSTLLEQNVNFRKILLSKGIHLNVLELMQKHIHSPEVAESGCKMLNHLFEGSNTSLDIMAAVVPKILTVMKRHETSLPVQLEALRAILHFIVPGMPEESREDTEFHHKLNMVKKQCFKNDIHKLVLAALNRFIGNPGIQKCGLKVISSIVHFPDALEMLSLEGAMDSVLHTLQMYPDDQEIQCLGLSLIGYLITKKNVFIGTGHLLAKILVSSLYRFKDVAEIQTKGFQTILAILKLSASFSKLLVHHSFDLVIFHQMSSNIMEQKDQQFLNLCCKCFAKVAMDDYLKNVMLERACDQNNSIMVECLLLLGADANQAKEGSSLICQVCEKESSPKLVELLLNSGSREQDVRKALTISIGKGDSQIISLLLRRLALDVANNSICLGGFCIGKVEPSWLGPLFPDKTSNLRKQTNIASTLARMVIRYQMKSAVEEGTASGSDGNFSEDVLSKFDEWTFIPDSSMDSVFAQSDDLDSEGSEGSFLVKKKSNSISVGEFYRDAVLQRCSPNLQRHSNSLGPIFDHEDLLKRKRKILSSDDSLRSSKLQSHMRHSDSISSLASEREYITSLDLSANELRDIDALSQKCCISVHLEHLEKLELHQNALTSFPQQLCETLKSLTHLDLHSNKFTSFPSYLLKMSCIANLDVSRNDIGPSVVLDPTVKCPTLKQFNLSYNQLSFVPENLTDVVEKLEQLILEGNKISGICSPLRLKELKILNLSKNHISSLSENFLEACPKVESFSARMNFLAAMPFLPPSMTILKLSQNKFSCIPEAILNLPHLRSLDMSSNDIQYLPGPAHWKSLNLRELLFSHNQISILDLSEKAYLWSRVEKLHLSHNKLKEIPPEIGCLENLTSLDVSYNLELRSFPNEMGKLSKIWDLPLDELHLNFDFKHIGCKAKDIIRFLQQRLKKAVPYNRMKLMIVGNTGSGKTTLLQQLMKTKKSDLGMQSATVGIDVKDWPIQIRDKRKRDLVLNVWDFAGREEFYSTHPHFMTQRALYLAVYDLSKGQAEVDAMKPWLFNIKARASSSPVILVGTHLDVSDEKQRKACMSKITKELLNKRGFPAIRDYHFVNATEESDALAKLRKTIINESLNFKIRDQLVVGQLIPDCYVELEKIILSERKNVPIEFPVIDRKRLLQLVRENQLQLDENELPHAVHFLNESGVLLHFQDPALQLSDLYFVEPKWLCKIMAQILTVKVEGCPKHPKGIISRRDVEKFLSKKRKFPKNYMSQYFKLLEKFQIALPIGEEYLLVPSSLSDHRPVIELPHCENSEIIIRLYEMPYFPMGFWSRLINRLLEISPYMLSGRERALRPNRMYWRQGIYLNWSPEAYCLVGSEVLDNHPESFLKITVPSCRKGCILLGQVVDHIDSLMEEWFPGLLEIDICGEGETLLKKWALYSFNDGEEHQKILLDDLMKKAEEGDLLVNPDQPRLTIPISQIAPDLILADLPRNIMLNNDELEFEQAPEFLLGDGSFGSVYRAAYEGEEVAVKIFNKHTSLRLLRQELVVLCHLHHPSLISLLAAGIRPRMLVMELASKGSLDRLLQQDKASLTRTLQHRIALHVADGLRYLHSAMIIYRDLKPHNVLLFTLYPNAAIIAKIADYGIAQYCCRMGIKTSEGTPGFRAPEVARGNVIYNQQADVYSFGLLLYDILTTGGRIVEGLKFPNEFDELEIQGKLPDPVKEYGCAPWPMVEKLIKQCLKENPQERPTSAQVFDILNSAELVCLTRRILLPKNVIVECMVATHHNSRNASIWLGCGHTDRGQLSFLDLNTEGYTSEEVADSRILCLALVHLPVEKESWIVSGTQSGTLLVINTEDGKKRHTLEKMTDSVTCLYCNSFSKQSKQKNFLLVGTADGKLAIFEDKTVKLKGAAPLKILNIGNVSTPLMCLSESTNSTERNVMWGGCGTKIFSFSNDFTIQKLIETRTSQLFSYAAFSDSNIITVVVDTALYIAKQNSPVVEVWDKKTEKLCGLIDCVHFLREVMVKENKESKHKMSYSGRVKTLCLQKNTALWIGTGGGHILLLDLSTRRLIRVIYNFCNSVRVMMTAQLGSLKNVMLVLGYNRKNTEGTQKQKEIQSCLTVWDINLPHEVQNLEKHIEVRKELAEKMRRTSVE
T1 sequence (Q5S007 whole entry G2019S): as the sequence (Q5S007 whole entry) above, with G2019S counted along it

As for `C[C@H]1CCc2cc(C#N)ccc2[C@H]1Oc1ccc2[nH]nc(-c3cnco3)c2c1` (single isomer, unassigned) [175, enantiomer 1, cis-6-Methyl-5-[[3-(1,3-oxazol-5-yl)-1H-indazol-5-yl]oxy]-5,6,7,8-tetrahydronaphthalene-2-carbonitrile], the IC50 on LRRK2 G2019S was less than 100 nM; on LRRK2 WT, 100 to 1000 nM. For `C[C@H]1CCc2cc(C#N)ccc2[C@H]1Oc1ccc2[nH]nc(-c3cnco3)c2c1` (single isomer, unassigned) [175, enantiomer 2, cis-6-Methyl-5-[[3-(1,3-oxazol-5-yl)-1H-indazol-5-yl]oxy]-5,6,7,8-tetrahydronaphthalene-2-carbonitrile], in that order: less than 100 nM and 100 to 1000 nM. On the same counts, the results for `C[C@@H]1CCc2cc(C#N)ccc2[C@H]1Oc1ccc2[nH]nc(-c3cnco3)c2c1` (single isomer, unassigned) [176, enantiomer 1, trans-6-Methyl-5-[[3-(1,3-oxazol-5-yl)-1H-indazol-5-yl]oxy]-5,6,7,8-tetrahydronaphthalene-2-carbonitrile] are less than 100 nM and 100 to 1000 nM. For `C[C@@H]1CCc2cc(C#N)ccc2[C@H]1Oc1ccc2[nH]nc(-c3cnco3)c2c1` (single isomer, unassigned) [176, enantiomer 2, trans-6-Methyl-5-[[3-(1,3-oxazol-5-yl)-1H-indazol-5-yl]oxy]-5,6,7,8-tetrahydronaphthalene-2-carbonitrile], in that order: less than 100 nM and less than 100 nM. Turning to `N#Cc1cc2c(nc1Cl)[C@@H](Oc1ccc3[nH]nc(-c4cnco4)c3c1)CCC2` (single isomer, unassigned) [177, enantiomer 1, 2-Chloro-8-((3-(oxazol-5-yl)-1H-indazol-5-yl)oxy)-5,6,7,8-tetrahydroquinoline-3-carbonitrile], the IC50 at LRRK2 G2019S and on LRRK2 WT was less than 100 nM each time. Consider `N#Cc1cc2c(nc1Cl)[C@@H](Oc1ccc3[nH]nc(-c4cnoc4)c3c1)CCC2` (single isomer, unassigned) [178, enantiomer 1, 2-Chloro-8-[[3-(1,2-oxazol-4-yl)-1H-indazol-5-yl]oxy]-5,6,7,8-tetrahydroquinoline-3-carbonitrile], for which the 50% inhibitory concentration (IC50) at LRRK2 G2019S and at LRRK2 WT was less than 100 nM each time. On to `COc1nc2c(cc1C#N)CCC[C@@H]2Oc1ccc2[nH]nc(-c3cnco3)c2c1` (single isomer, unassigned) [179, enantiomer 1, 2-Methoxy-8-[[3-(1,3-oxazol-5-yl)-1H-indazol-5-yl]oxy]-5,6,7,8-tetrahydroquinoline-3-carbonitrile], for which the IC50 on LRRK2 G2019S and at LRRK2 WT was less than 100 nM in each case. `COc1nc2c(cc1C#N)CCC[C@@H]2Oc1ccc2[nH]nc(-c3cnco3)c2c1` (single isomer, unassigned) [179, enantiomer 2, 2-Methoxy-8-[[3-(1,3-oxazol-5-yl)-1H-indazol-5-yl]oxy]-5,6,7,8-tetrahydroquinoline-3-carbonitrile]: the IC50 at LRRK2 G2019S and at LRRK2 WT was 100 to 1000 nM each time. With `N#Cc1cc2c(cc1F)[C@@H](Oc1ccc3[nH]nc(-c4cnco4)c3c1)CCC2` (single isomer, unassigned) [180, enantiomer 1, 3-Fluoro-5-[[3-(1,3-oxazol-5-yl)-1H-indazol-5-yl]oxy]-5,6,7,8-tetrahydronaphthalene-2-carbonitrile], the IC50 at LRRK2 G2019S and on LRRK2 WT was less than 100 nM each time. For the compound `N#Cc1cc2c(nc1Cl)[C@@H](Oc1ccc3[nH]nc(C4CC4)c3c1)CCC2` (single isomer, unassigned) [181, enantiomer 1, 2-Chloro-8-[(3-cyclopropyl-1H-indazol-5-yl)oxy]-5,6,7,8-tetrahydroquinoline-3-carbonitrile], the IC50 on LRRK2 G2019S and at LRRK2 WT was less than 100 nM each time. With `N#Cc1cc2c(nc1Cl)[C@@H](Oc1ccc3[nH]nc(C4CC4)c3c1)CCC2` (single isomer, unassigned) [181, enantiomer 2, 2-Chloro-8-[(3-cyclopropyl-1H-indazol-5-yl)oxy]-5,6,7,8-tetrahydroquinoline-3-carbonitrile], the half-inhibitory concentration (IC50) is less than 100 nM on LRRK2 G2019S and 100 to 1000 nM on LRRK2 WT. For `N#Cc1cnc2c(n1)CC[C@@H]2Oc1ccc2[nH]nc(-c3cnco3)c2c1` (single isomer, unassigned) [182, enantiomer 1, 5-((3-(Oxazol-5-yl)-1H-indazol-5-yl)oxy)-6,7-dihydro-5H-cyclopenta[b]pyrazine-2-carbonitrile], in that order: less than 100 nM and less than 100 nM. For `Cc1c(C#N)c(Cl)nc2c1CCC[C@@H]2Nc1ccc2[nH]nc(C3CC3)c2c1` (single isomer, unassigned) [183, enantiomer 1, 2-Chloro-8-[(3-cyclopropyl-1H-indazol-5-yl)amino]-4-methyl-5,6,7,8-tetrahydroquinoline-3-carbonitrile], in that order: 100 to 1000 nM and 1000 to 10000 nM. Take `Cc1c(C#N)c(Cl)nc2c1CCC[C@@H]2Nc1ccc2[nH]nc(C3CC3)c2c1` (single isomer, unassigned) [183, enantiomer 2, 2-Chloro-8-[(3-cyclopropyl-1H-indazol-5-yl)amino]-4-methyl-5,6,7,8-tetrahydroquinoline-3-carbonitrile]: the IC50 at LRRK2 G2019S and at LRRK2 WT was less than 100 nM throughout. As for `Cc1c(C#N)c(Cl)nc2c1CCC[C@@H]2Oc1ccc2[nH]nc(C3CC3)c2c1` (single isomer, unassigned) [184, enantiomer 1, 2-Chloro-8-[(3-cyclopropyl-1H-indazol-5-yl)oxy]-4-methyl-5,6,7,8-tetrahydroquinoline-3-carbonitrile], the 50% inhibitory concentration (IC50) on LRRK2 G2019S and at LRRK2 WT was less than 100 nM each time.

Take `Cc1c(C#N)c(Cl)nc2c1CCC[C@@H]2Oc1ccc2[nH]nc(C3CC3)c2c1` (single isomer, unassigned) [184, enantiomer 2, 2-Chloro-8-[(3-cyclopropyl-1H-indazol-5-yl)oxy]-4-methyl-5,6,7,8-tetrahydroquinoline-3-carbonitrile]: the concentration for half-maximal inhibition (IC50) was less than 100 nM at LRRK2 G2019S and 1000 to 10000 nM on LRRK2 WT. On the same counts, the results for `COc1n[nH]c2ccc(O[C@H]3CCc4cc(C#N)c(Cl)nc43)cc12` (single isomer, unassigned) [185, enantiomer 1, 2-Chloro-7-[(3-methoxy-1H-indazol-5-yl)oxy]-6,7-dihydro-5H-cyclopenta[b]pyridine-3-carbonitrile] are less than 100 nM and less than 100 nM. With `COc1n[nH]c2ccc(O[C@H]3CCc4cc(C#N)c(Cl)nc43)cc12` (single isomer, unassigned) [185, enantiomer 2, 2-Chloro-7-[(3-methoxy-1H-indazol-5-yl)oxy]-6,7-dihydro-5H-cyclopenta[b]pyridine-3-carbonitrile], the IC50 on LRRK2 G2019S was in the range of 100 to 1000 nM; on LRRK2 WT it was 1000 to 10000 nM. On the same counts, the results for `COc1n[nH]c2ccc(O[C@H]3CCCc4cc(C#N)c(Cl)nc43)cc12` (single isomer, unassigned) [186, enantiomer 1, 2-Chloro-8-[(3-methoxy-1H-indazol-5-yl)oxy]-5,6,7,8-tetrahydroquinoline-3-carbonitrile] are less than 100 nM and less than 100 nM. For `COc1n[nH]c2ccc(O[C@H]3CCCc4cc(C#N)c(Cl)nc43)cc12` (single isomer, unassigned) [186, enantiomer 2, 2-Chloro-8-[(3-methoxy-1H-indazol-5-yl)oxy]-5,6,7,8-tetrahydroquinoline-3-carbonitrile], in that order: 100 to 1000 nM and 1000 to 10000 nM. For `COc1n[nH]c2ccc(O[C@H]3CCc4cc(C#N)c(Br)nc43)cc12` (single isomer, unassigned) [187, enantiomer 1, 2-Bromo-7-[(3-methoxy-1H-indazol-5-yl)oxy]-6,7-dihydro-5H-cyclopenta[b]pyridine-3-carbonitrile], in that order: less than 100 nM and less than 100 nM. As for `COc1n[nH]c2ccc(O[C@H]3CCc4cc(C#N)c(Br)nc43)cc12` (single isomer, unassigned) [187, enantiomer 2, 2-Bromo-7-[(3-methoxy-1H-indazol-5-yl)oxy]-6,7-dihydro-5H-cyclopenta[b]pyridine-3-carbonitrile], the IC50 on LRRK2 G2019S and on LRRK2 WT was 100 to 1000 nM in each case. Regarding `COc1n[nH]c2ccc(O[C@H]3CCCc4cc(C#N)c(Br)nc43)cc12` (single isomer, unassigned) [188, enantiomer 1, 2-Bromo-8-[(3-methoxy-1H-indazol-5-yl)oxy]-5,6,7,8-tetrahydroquinoline-3-carbonitrile], the IC50 on LRRK2 G2019S and on LRRK2 WT was less than 100 nM each time.

As for `N#Cc1cnc2c(c1)CCC[C@@H]2Oc1ccc2[nH]nc(C3CC3)c2c1` (single isomer, unassigned) [Example 136, enantiomer 2, 8-((3-Cyclopropyl-1H-indazol-5-yl)oxy)-5,6,7,8-tetrahydroquinoline-3-carbonitrile], at LRRK2 G2019S, the IC50 was 100 to 1000 nM. On the same count and under the same terms, the figure for `N#Cc1ccc2c(c1)CCCC2Nc1ccc2[nH]nc(C(F)(F)F)c2c1` (single isomer, unassigned) [Example 153, enantiomer 2, 5-((3-(Trifluoromethyl)-1H-indazol-5-yl)amino)-5,6,7,8-tetrahydronaphthalene-2-carbonitrile] is 1000 to 10000 nM.
